Measurements from patent US20250340574A1, “MODULATORS OF CYSTIC FIBROSIS TRANSMEMBRANE CONDUCTANCE REGULATOR” (Vertex Pharmaceuticals Incorporated, priority 2022, published 2025).
Read-outs that look alike come from different tables or passages of the source.

Key:
[1] = amide bond, 13-membered ring, CDMT/NMM, DMF
[2] = target: T1, CFTR (F508del/MF-HBE cells) (Homo sapiens, UniProt P13569, DEL508-508); assay: Ussing chamber assay of CFTR-mediated short-circuit currents, Assay A (0.1 μM to 25 μM, 6 concentrations); type: cell-based; settings: with 33 nM potentiator and 18 μM Tezacaftor, 20% human serum; for Emax: 18-24 hours, read-out: A Max activity (%)
T1 construct: human bronchial epithelial (HBE) cells derived from CF subjects heterozygous for F508del and a minimal function CFTR mutation (F508del/MF-HBE); endogenous in cells; host or cells: Primary human bronchial epithelial cells from CF subjects (F508del/MF genotype), differentiated at an air-liquid interface
Outline: (§1)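 Short-circuit current was recorded at 37 °C under voltage clamp (0 mV) with amiloride 30 μM apically, forskolin 20 μM activation, then BPO/GlyH-101/inh-172 (20 μM each) to isolate CFTR current. Before recording, corrector exposure lasted 18–24 h with 18 μM tezacaftor, 20% human serum, and 33 nM (dose–response) or 44 nM (1 μM fixed) potentiator, maintained throughout.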

[3] = target: T1, CFTR (F508del/MF-HBE cells); assay: Ussing chamber assay of CFTR-mediated short-circuit currents, Assay B (0.00001 μM to 25 μM, 12 concentrations); type: cell-based; settings: with 33 nM potentiator and 18 μM Tezacaftor, 20% human serum; for Emax: 18-24 hours, read-out: B Max activity (%)
Method: Ussing chamber experiments were performed using human bronchial epithelial (HBE) cells derived from CF subjects heterozygous for F508del and a minimal function CFTR mutation (F508del/MF-HBE) and cultured as previously described (Neuberger T, Burton B, Clark H, Van Goor F Methods Mol Biol 2011:741:39-54). After four days the apical media was removed, and the cells were grown at an air liquid interface for >14 days prior to use.
To isolate the CFTR-mediated short-circuit (ISC) current, F508del/MF-HBE grown on Costar® Snapwell™ cell culture inserts were mounted in an Ussing chamber and the transepithelial ISC was measured under voltage-clamp recording conditions (Vhold=0 mV) at 37° C. The basolateral solution contained (in mM) 145 NaCl, 0.83 K2HPO4, 3.3 KH2PO4, 1.2 MgCl2, 1.2 CaCl2, 10 Glucose, 10 HEPES (pH adjusted to 7.4 with NaOH) and the apical solution contained (in mM) 145 NaGluconate, 1.2 MgCl2, 1.2 CaCl2, 10 glucose, 10 HEPES (pH adjusted to 7.4 with NaOH) and 30 μM amiloride to block the epithelial sodium channel. Forskolin (20 μM) was added to the apical surface to activate CFTR, followed by apical addition of a CFTR inhibitor cocktail consisting of BPO, GlyH-101, and CFTR inhibitor 172 (each at 20 μM final assay concentration) to specifically isolate CFTR currents. The CFTR-mediated ISC (μA/cm^2) for each condition was determined from the peak forskolin response to the steady-state current following inhibition.
The activity of the CFTR corrector compounds on the CFTR-mediated ISC was determined in Ussing chamber studies as described above. The F508del/MF-HBE cell cultures were either incubated with the corrector compounds at a range of concentrations in combination with 33 nM (6R,12R)-17-amino-12-methyl-6,15-bis(trifluoromethyl)-13,19-dioxa-3,4,18-triazatricyclo[12.3.1.12,5]nonadeca-1(18),2,4,14,16-pentaen-6-ol and 18 μM Tezacaftor or were incubated with the corrector compounds at a single fixed concentration of 1 μM in combination with 44 nM (6R,12R)-17-amino-12-methyl-6,15-bis(trifluoromethyl)-13,19-dioxa-3,4,18-triazatricyclo[12.3.1.12,5]nonadeca-1(18),2,4,14,16-pentaen-6-ol and 18 μM Tezacaftor for 18-24 hours at 37° C. and in the presence of 20% human serum. The concentration of corrector compounds with 44 nM or 33 nM (6R,12R)-17-amino-12-methyl-6,15-bis(trifluoromethyl)-13,19-dioxa-3,4,18-triazatricyclo[12.3.1.12,5]nonadeca-1(18),2,4,14,16-pentaen-6-ol and 18 μM Tezacaftor during the 18-24 hours incubations was kept constant throughout the Ussing chamber measurement of the CFTR-mediated ISC to ensure compounds were present throughout the entire experiment. The efficacy and potency of the putative F508del correctors was compared to that of the known Vertex corrector, (14S)-8-[3-(2-{Dispiro[2.0.2.1]heptan-7-yl}ethoxy)-1H-pyrazol-1-yl]-12,12-dimethyl-2λ^6-thia-3,9,11,18,23-pentaazatetracyclo[17.3.1.111,14.05,10]tetracosa-1(22),5,7,9,19(23),20-hexaene-2,2,4-trione, in combination with 18 μM Tezacaftor and 1 μM Ivacaftor.
• Assay A: 0.1 μM to 25 μM, 6 concentrations • Assay B: 0.00001 μM to 25 μM, 12 concentrations • Assay C: 0.026 μM to 25 μM, 6 concentrations • Assay D: Activity at single concentration of 1 μM

[4] = target: T1, CFTR (F508del/MF-HBE cells); assay: Ussing chamber assay of CFTR-mediated short-circuit currents, Assay C (0.026 μM to 25 μM, 6 concentrations); type: cell-based; settings: with 33 nM potentiator and 18 μM Tezacaftor, 20% human serum
Outline: as §1

[5] = target: T1, CFTR (F508del/MF-HBE cells); assay: Ussing chamber assay of CFTR-mediated short-circuit currents, Assay D (single concentration of 1 μM); type: cell-based; settings: with 44 nM potentiator and 18 μM Tezacaftor, 18-24 hours, 20% human serum
Outline: as §1

T1 sequence (P13569 with tags, fused parts or gaps DEL508-508): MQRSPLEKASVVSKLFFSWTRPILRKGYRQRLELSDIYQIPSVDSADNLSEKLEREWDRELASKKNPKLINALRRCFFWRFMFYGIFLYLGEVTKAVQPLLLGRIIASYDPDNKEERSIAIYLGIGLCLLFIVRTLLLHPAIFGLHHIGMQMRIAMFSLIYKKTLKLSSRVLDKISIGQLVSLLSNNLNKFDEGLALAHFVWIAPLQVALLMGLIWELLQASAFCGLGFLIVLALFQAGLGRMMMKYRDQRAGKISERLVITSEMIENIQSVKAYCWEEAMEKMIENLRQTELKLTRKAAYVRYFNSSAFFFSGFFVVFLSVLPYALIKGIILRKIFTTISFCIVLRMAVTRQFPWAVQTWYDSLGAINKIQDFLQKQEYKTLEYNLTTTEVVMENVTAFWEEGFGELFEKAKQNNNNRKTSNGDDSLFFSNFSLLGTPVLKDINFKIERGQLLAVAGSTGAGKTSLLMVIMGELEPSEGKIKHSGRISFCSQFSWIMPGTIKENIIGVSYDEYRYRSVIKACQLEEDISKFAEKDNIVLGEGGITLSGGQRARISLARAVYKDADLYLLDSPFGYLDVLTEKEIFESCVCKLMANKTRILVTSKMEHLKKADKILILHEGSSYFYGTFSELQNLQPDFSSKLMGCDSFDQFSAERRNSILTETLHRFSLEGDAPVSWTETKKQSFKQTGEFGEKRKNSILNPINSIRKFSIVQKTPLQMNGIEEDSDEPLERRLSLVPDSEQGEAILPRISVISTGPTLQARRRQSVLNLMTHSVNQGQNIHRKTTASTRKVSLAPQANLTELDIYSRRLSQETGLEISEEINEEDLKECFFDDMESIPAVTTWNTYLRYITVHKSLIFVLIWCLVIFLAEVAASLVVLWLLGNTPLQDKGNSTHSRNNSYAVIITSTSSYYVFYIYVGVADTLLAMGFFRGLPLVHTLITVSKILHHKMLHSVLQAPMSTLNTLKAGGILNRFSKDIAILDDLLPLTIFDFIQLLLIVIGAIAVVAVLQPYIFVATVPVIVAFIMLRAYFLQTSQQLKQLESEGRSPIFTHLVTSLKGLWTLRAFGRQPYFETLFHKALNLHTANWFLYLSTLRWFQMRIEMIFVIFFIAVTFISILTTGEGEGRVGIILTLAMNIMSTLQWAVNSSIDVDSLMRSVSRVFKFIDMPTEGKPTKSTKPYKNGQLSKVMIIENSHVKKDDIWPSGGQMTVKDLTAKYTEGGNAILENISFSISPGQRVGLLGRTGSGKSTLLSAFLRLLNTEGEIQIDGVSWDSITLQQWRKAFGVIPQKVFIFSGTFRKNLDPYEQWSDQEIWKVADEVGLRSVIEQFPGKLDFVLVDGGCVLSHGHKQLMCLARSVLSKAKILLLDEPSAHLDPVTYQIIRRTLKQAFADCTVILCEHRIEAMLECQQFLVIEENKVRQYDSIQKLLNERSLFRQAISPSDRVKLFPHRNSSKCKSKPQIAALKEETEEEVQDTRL

| SMILES | Emax [2] | EC50 [2] | Emax [3] | EC50 [3] | other results |
| --- | --- | --- | --- | --- | --- |
| Cc1cccc(C)c1-c1cc2nc(n1)NS(=O)(=O)c1cccc(c1)C(=O)N(Cc1cnc3oc(C4CC4)cc3n1)[C@H](COC(C)C)CO2 [Compound I-23, (11R)-12-[(6-cyclopropylfuro[2,3-b]pyrazin-2-yl)methyl]-6-(2,6-dimethylphenyl)-11-(isopropoxymethyl)-2,2-dioxo-9-oxa-2λ^6-thia-3,5,12,19-tetrazatricyclo[12.3.1.14,8]nonadeca-1(18),4(19),5,7,14,16-hexaen-13-one] | > 60% | < 1000 nM | > 60% | 1 to 3 µM | ring closure, yield after HPLC ([1]; from Cc1cccc(C)c1-c1cc(OC[C@@H](COC(C)C)NCc2cnc3oc(C4CC4)cc3n2)nc(NS(=O)(=O)c2cccc(C(=O)O)c2)n1, 40.6 mM, 14.0 h): 52% |
| Cc1cccc(C)c1-c1cc2nc(n1)NS(=O)(=O)c1cccc(c1)C(=O)N(Cc1cnc3oc(C4CCC4)cc3n1)[C@H](CC13CC(C1)C3)CO2 [Compound I-134, (11R)-11-(1-Bicyclo[1.1.1]pentanylmethyl)-12-[(6-cyclobutylfuro[2,3-b]pyrazin-2-yl)methyl]-6-(2,6-dimethylphenyl)-2,2-dioxo-9-oxa-2λ^6-thia-3,5,12,19-tetrazatricyclo[12.3.1.14,8]nonadeca-1(18),4(19),5,7,14,16-hexaen-13-one] | – | – | > 60% | < 1 µM | ring closure, yield after HPLC ([1]; from Cc1cccc(C)c1-c1cc(OC[C@@H](CC23CC(C2)C3)NCc2cnc3oc(C4CCC4)cc3n2)nc(NS(=O)(=O)c2cccc(C(=O)O)c2)n1, 28.4 mM, 2.0 h): 91% |
| Cc1cccc(C)c1-c1cc2nc(n1)NS(=O)(=O)c1cccc(c1)C(=O)N(Cc1cnc3nc(C(C)C)n(C)c3n1)[C@H](CC13CC(C1)C3)CO2 [Compound I-88, (11R)-11-(1-bicyclo[1.1.1]pentanylmethyl)-6-(2,6-dimethylphenyl)-12-[(2-isopropyl-3-methyl-imidazo[4,5-b]pyrazin-5-yl)methyl]-2,2-dioxo-9-oxa-2λ^6-thia-3,5,12,19-tetrazatricyclo[12.3.1.14,8]nonadeca-1(18),4(19),5,7,14,16-hexaen-13-one] | > 60% | < 1000 nM | > 60% | < 1 µM | ring closure, yield after HPLC ([1]; from Cc1cccc(C)c1-c1cc(OC[C@@H](CC23CC(C2)C3)NCc2cnc3nc(C(C)C)n(C)c3n2)nc(NS(=O)(=O)c2cccc(C(=O)O)c2)n1, 11.0 mM, 16.5 h): 66% |
| Cc1cccc(C)c1-c1cc2nc(n1)NS(=O)(=O)c1cccc(c1)C(=O)N(Cc1cnc3oc(C4CC4)cc3n1)[C@H](CC1(F)CCC1)CO2 [Compound I-123, (11R)-12-[(6-cyclopropylfuro[2,3-b]pyrazin-2-yl)methyl]-6-(2,6-dimethylphenyl)-11-[(1-fluorocyclobutyl)methyl]-2,2-dioxo-9-oxa-2λ^6-thia-3,5,12,19-tetrazatricyclo[12.3.1.14,8]nonadeca-1(18),4(19),5,7,14,16-hexaen-13-one] | – | – | > 60% | 3 to 30 µM | ring closure, yield after HPLC ([1]; from Cc1cccc(C)c1-c1cc(OC[C@@H](CC2(F)CCC2)NCc2cnc3oc(C4CC4)cc3n2)nc(NS(=O)(=O)c2cccc(C(=O)O)c2)n1, 27.1 mM, 2.08 h): 53% |
| Cc1cccc(C)c1-c1cc2nc(n1)NS(=O)(=O)c1cccc(c1)C(=O)N(Cc1cnc3cn(C(C)C)nc3n1)[C@H](CC1(C)CC1)CO2 [Compound I-128, (11R)-6-(2,6-Dimethylphenyl)-12-[(2-isopropylpyrazolo[3,4-b]pyrazin-6-yl)methyl]-11-[(1-methylcyclopropyl)methyl]-2,2-dioxo-9-oxa-2λ^6-thia-3,5,12,19-tetrazatricyclo[12.3.1.14,8]nonadeca-1(18),4(19),5,7,14,16-hexaen-13-one] | – | – | > 60% | 3 to 30 µM | ring closure, yield after HPLC ([1]; from Cc1cccc(C)c1-c1cc(OC[C@@H](CC2(C)CC2)NCc2cnc3cn(C(C)C)nc3n2)nc(NS(=O)(=O)c2cccc(C(=O)O)c2)n1, 12.0 mM, 22.5 h): 38% |
| Cc1cccc(C)c1-c1nc2nc(c1C)OC[C@@H](CC(C)(C)C)N(Cc1cnc3cc(C(C)(C)C)n(C)c3n1)C(=O)c1cccc(c1)S(=O)(=O)N2 [Compound I-188, (11R)-12-[(6-tert-Butyl-5-methyl-pyrrolo[2,3-b]pyrazin-3-yl)methyl]-6-(2,6-dimethylphenyl)-11-(2,2-dimethylpropyl)-7-methyl-2,2-dioxo-9-oxa-2λ^6-thia-3,5,12,19-tetrazatricyclo[12.3.1.14,8]nonadeca-1(18),4(19),5,7,14,16-hexaen-13-one] | – | – | > 60% | < 1 µM | ring closure, yield after HPLC ([1]; from Cc1cccc(C)c1-c1nc(NS(=O)(=O)c2cccc(C(=O)O)c2)nc(OC[C@@H](CC(C)(C)C)NCc2cnc3cc(C(C)(C)C)n(C)c3n2)c1C, 19.8 mM, 4.0 h): 57%; Emax ([4]; 18-24 hours, read-out: C Max activity (%)): > 60%; EC50 [4]: < 1000 nM; D activity at 1 μM (%) [5]: +++ (+++ is >60%) |
| Cc1cccc(C)c1-c1cc2nc(n1)NS(=O)(=O)c1cccc(c1)C(=O)N(Cc1cnc3oc(C)c(C4CC4)c3n1)[C@H](COC(C)C)CO2 [Compound I-26, (11R)-12-[(7-cyclopropyl-6-methyl-furo[2,3-b]pyrazin-2-yl)methyl]-6-(2,6-dimethylphenyl)-11-(isopropoxymethyl)-2,2-dioxo-9-oxa-2λ^6-thia-3,5,12,19-tetrazatricyclo[12.3.1.14,8]nonadeca-1(18),4(19),5,7,14,16-hexaen-13-one] | > 60% | < 1000 nM | – | – | ring closure, yield after HPLC ([1]; from Cc1cccc(C)c1-c1cc(OC[C@@H](COC(C)C)NCc2cnc3oc(C)c(C4CC4)c3n2)nc(NS(=O)(=O)c2cccc(C(=O)O)c2)n1, 12.8 mM, 16.5 h): 61% |
| Cc1cccc(C)c1-c1cc2nc(n1)NS(=O)(=O)c1cccc(c1)C(=O)N(Cc1nc3c(cc1F)cc(C(C)C)n3C)[C@H](CC13CC(C1)C3)CO2 [Compound I-87, (11R)-11-(1-bicyclo[1.1.1]pentanylmethyl)-6-(2,6-dimethylphenyl)-12-[(5-fluoro-2-isopropyl-1-methyl-pyrrolo[2,3-b]pyridin-6-yl)methyl]-2,2-dioxo-9-oxa-2λ^6-thia-3,5,12,19-tetrazatricyclo[12.3.1.14,8]nonadeca-1(18),4(19),5,7,14,16-hexaen-13-one] | > 60% | < 1000 nM | – | – | ring closure, yield after HPLC ([1]; from Cc1cccc(C)c1-c1cc(OC[C@@H](CC23CC(C2)C3)NCc2nc3c(cc2F)cc(C(C)C)n3C)nc(NS(=O)(=O)c2cccc(C(=O)O)c2)n1, 10.7 mM, 24.5 h): 39% |
